# Reference: publication PMC12505902, “Inhibitors of trehalose-6-phosphate synthase activity in fungal pathogens compromise thermal tolerance pathways” (mBio, 2025)
# Like-named read-outs stand apart in the source and are kept apart here.
# Experiments:
# 6xHis-CaTps1 [1] = target: T1, 6xHis-CaTps1 (Candida albicans, UniProt Q92410); test: UDP Transcreener FP assay, primary screen of the 3PP library; format: biochemical; settings: for inhibition at 500 µM: read-out: CaTps1 FP (% inhibition)
# T1 construct: Briefly, the full-length; thrombin cleavage site (pET-28a linker) (N); made in house; host or cells: E. coli BL21(DE3)pLysS
# T1 sequence (Q92410 1-478): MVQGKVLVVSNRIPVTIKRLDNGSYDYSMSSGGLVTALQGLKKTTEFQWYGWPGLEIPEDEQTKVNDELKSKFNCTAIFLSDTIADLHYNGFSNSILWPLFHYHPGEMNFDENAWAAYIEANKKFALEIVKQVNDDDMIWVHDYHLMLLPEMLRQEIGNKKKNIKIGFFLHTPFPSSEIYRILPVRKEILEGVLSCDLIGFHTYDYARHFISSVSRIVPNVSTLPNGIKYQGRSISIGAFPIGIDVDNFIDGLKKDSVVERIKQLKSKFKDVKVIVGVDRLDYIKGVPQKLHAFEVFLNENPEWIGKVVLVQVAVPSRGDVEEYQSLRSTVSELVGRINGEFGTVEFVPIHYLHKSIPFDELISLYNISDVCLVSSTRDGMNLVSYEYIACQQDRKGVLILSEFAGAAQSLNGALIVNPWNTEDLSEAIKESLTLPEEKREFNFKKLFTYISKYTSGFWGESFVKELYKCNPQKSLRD
# From the text: As the first step of the trehalose biosynthesis pathway, Tps1 synthesizes T6P from the substrates UDP-glucose and G6P, followed by the release of UDP and T6P ([16]). To identify a small molecule inhibitor of Tps1 activity, we adapted an HTS utilizing the UDP Transcreener FP assay ([33], [34]). The FP assay detects the UDP released as a result of the Tps1-mediated enzymatic reaction (Fig. 1A). The FP assay Z’ factor, which describes the suitability of an assay for an HTS, is 0.87, indicating an ideal signal-to-noise ratio (Fig. S1A) ([35]). There was a greater than 175 millipolarization (mP) shift between the positive control novobiocin, an inhibitor with activity against a bacterial trehalose-P-synthase, and the negative control dimethyl sulfoxide (DMSO) (Fig. S1A) ([36]). Recombinant Tps1 from C. albicans, hereafter referred to as CaTps1, was expressed in E. coli and purified via an N-terminal 6xHis-tag and Ni^2-NTA affinity chromatography, followed by size exclusion chromatography (Fig. 1B). A 3-point pharmacophore (3PP) library, which consisted of a subset of 750 compounds of less than 300 Da in molecular mass from the St. Jude Children’s Research Hospital chemical library, was screened for the ability to inhibit 6xHis-CaTps1 activity ([37]). In the primary screen, 32 (4.3 %) compounds that inhibited the activity of 6xHis-CaTps1 by more than 10% at 500 µM concentration were identified (Fig. 1C and D). A 10% cutoff provided a significant number of hits to validate using a dose response assay (Fig. S1B). At the completion of the screen, seven compounds that inhibit the activity of CaTps1 in a dose-dependent manner were selected for further investigation (Fig. 1E; Table 1).
# The glycosyltransferase activity of 6xHis-CaTps1, which results in the release of UDP, was measured using the UDP Transcreener FP assay (BellBrook Labs #3018, Madison, WI). The St. Jude Children’s Hospital (Memphis, TN) 3PP library was screened ([37]). Assays were performed at 37°C for 60 minutes in a 384-well plate using 5 µM 6xHis-CaTps1 in assay buffer containing 50 mM Tris-HCl pH 7.5, 300 mM NaCl, 10 mM MgCl2, and 1 mM dithiothreitol (DTT). Fluorescence polarization was detected using a BMG Labtech plate reader. Each assay plate contained the following additional control wells: (i) no antibody control, (ii) DMSO vehicle control, (iii) novobiocin positive control, and (iv) novobiocin dose-response. Screens were performed by the addition of single-point additions of test molecules to the above assay. The Z’ factor was calculated according to guidelines by Zhang et al., with a Z-factor of 0.5 and 1.0 indicating an excellent assay ([35]).
# C. neoformans [2] = test system: C. neoformans; design: method as in PMID 27248439; settings: ref [12]; cited from earlier work
# [3] = design: method as in PMID 27248439; settings: ref [12]; cited from earlier work
# Cryptococcus gattii = test system: Cryptococcus gattii; design: method as in PMID 27248439; settings: ref [12]; cited from earlier work
# C. albicans = settings: Supplemental Table 5, cited from earlier work
# C. neoformans [4] = test system: C. neoformans; design: method as in earlier work; settings: Supplemental Table 5; ref (13); cited from earlier work
# 6xHis-CaTps1 [5] = target: T1, 6xHis-CaTps1; test: Spectrophotometric-coupled Tps1 enzyme activity assay; format: biochemical, C. albicans; settings: compounds diluted in DMSO, normalized to the DMSO control
# Experimental: Fig 2 4456dh binds Tps1 and inhibits Tps1 activity. (A) Structure of 4456dh. (B and C) Glo-melt thermal shift assays reveal 4456dh destabilizes 6xHis-CaTps1 (B) and 6xHis-CnTps1 (C). The first derivative of the raw data was used to determine the melting temperature of 1 µM 6xHis-CaTps1 (B) and 1 µM 6xHis-CnTps1 (C) treated without (black) or with 2 mM 4456dh (red). […] The resulting dose-response curves were fitted to a one-site binding model to extract Kd values; the SD was calculated using the Kd values from each independent experiment (n = 3). (F) Tps1 enzyme activity assay with 5 µM 6xHis-CaTps1 (F) and 6xHis-CnTps1 (G) ±1 mM 4456dh. Error bars represent SE. […]
# The ability of 4456dh to inhibit the activity of CaTps1 was tested using a spectrophotometric-coupled Tps1 enzyme assay, in which recombinant 6xHis-CaTps1 was incubated with 1 mM 4456dh at 4°C for 16 hours. […] Similarly, the effect of 1 mM 4456dh on 6xHis-CnTps1 activity was determined. […]
# 82 determined by SDS-PAGE analysis, were pooled and concentrated to 1 mg/mL for downstream […]
# 93 The data were acquired with MO.Control 1.5.3 (NanoTemper Technologies GmbH). Recorded
# 94 data were analyzed with MO.Affinity Analysis 2.2.7 (NanoTemper Technologies GmbH). […]
# 100 2X Glo-melt dye. Thermal denaturation was measured using an RT-PCR thermocycler (BioRad) […]
# 102 determined by identifying the inflection point of the derivative data. […]
# [6] = primary screen, 500 µM compound, 5 µM 6xHis-CaTps1, 37°C 60 minutes
smiles,measurement,setting,value
"CO[C@@H]1[C@@H](OC(N)=O)[C@@H](O)[C@H](Oc2ccc3c(O)c(NC(=O)c4ccc(O)c(CC=C(C)C)c4)c(=O)oc3c2C)OC1(C)C [novobiocin, reference compound]",millipolarization (mP) shift between positive control and DMSO,6xHis-CaTps1 [1]; positive control versus negative control DMSO,greater than 175 mP
Cc1cc(C(C#N)c2ccc(Cl)cc2)c(Cl)cc1NC(=O)c1cc(I)cc(I)c1O (centres unmarked) [Closantel],activity in vitro,C. neoformans [2],potent activity
same,antifungal activity in murine models,[3],does not have antifungal activity
same,activity in vitro,Cryptococcus gattii,potent activity
N#CCC(=O)c1ccco1 [SJ000805629-1],inhibition at 500 µM,6xHis-CaTps1 [1]; [6],32.2%
CN(C)C(C#N)c1ccccc1Cl (centres unmarked) [SJ000866063-1],inhibition at 500 µM,6xHis-CaTps1 [1],19%
CC[C@H](C)C[C@H](C)CCCCCCCCC(=O)N[C@H]1C[C@@H](O)[C@@H](NCCN)NC(=O)[C@@H]2[C@@H](O)CCN2C(=O)[C@H]([C@H](O)CCN)NC(=O)[C@H]([C@H](O)[C@@H](O)c2ccc(O)cc2)NC(=O)[C@@H]2C[C@@H](O)CN2C(=O)[C@H]([C@@H](C)O)NC1=O [Caspofungin],MIC80,C. albicans; ref (12),1 µg/mL
OC(Cn1cncn1)(Cn1cncn1)c1ccc(F)cc1F [Fluconazole],MIC80,C. albicans; ref (11),1.84 µg/mL
C[C@@H]1[C@H](O)[C@@H](C)/C=C/C=C/C=C/C=C/C=C/C=C/C=C/[C@H](O[C@@H]2O[C@H](C)[C@@H](O)[C@H](N)[C@@H]2O)C[C@@H]2O[C@](O)(C[C@@H](O)C[C@@H](O)[C@H](O)CC[C@@H](O)C[C@@H](O)CC(=O)O[C@H]1C)C[C@H](O)[C@H]2C(=O)O [Amphotericin B],MIC80,C. neoformans [4],2 µg/mL
O=C(C1CC1)N1CCCNCC1 [SJ000866536-1],inhibition at 500 µM,6xHis-CaTps1 [1]; [6],18.6%
C[C@@H](c1ncncc1F)[C@](O)(Cn1cncn1)c1ccc(F)cc1F [Voriconazole],MIC80,C. albicans; ref (11),0.06 µg/mL
Cn1cc(-c2csc(NC(=O)Cc3ccccn3)n2)cn1 [Compound 4456],effect of SJ6675 derivatives on CaTps1 activity,6xHis-CaTps1 [5],significantly inhibited the activity of CaTps1
Nc1[nH]c(=O)ncc1F [Flucytosine],MIC80,C. neoformans [4],8 µg/mL
CN1CCc2c(sc(N)c2C#N)C1 [SJ000866390-1],inhibition at 500 µM,6xHis-CaTps1 [1]; [6],36.4%
"Nc1nc(-c2ccoc2)cs1 [SJ000866675-1, [4-furan-3-yl]thiazol-2-amine]",inhibition at 500 µM,6xHis-CaTps1 [1]; [6],13.7%
CC(Cc1ccoc1)NS(C)(=O)=O (centres unmarked) [SJ000866077-1],inhibition at 500 µM,6xHis-CaTps1 [1]; [6],11.1%
CN(C)C(C#N)c1c(F)cccc1Cl (centres unmarked) [SJ000866107-1],inhibition at 500 µM,6xHis-CaTps1 [1],18.2%
